What all share (assay): relative viability (nuclei count vs DMSO), 5 days (fraction); higher = more cells survive
Compound in assay [1]: CS(=O)(=O)N1CCN(Cc2cc3nc(-c4cccc5[nH]ncc45)nc(N4CCOCC4)c3s2)CC1 [Pictilisib] + CC1(C)CCC(c2ccc(Cl)cc2)=C(CN2CCN(c3ccc(C(=O)NS(=O)(=O)c4ccc(N[C@H](CCN5CCOCC5)CSc5ccccc5)c(S(=O)(=O)C(F)(F)F)c4)cc3)CC2)C1 [Navitoclax] (partner 0.5 µM)
The gist of the method:
(§1)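 Lung cancer cell lines, seeded in 1536-well plates, were treated the following day by pin tool with a single drug or with five library-drug doses (not always all listed) in √10 steps on top of a fixed anchor-drug dose. Cells were fixed and nuclei stained in one step after 5 days, and nuclei were counted. Relative viability is the nuclei count for treated wells divided by that for vehicle wells, reported as medians of duplicate plates.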

Compound in assay [2]: CS(=O)(=O)N1CCN(Cc2cc3nc(-c4cccc5[nH]ncc45)nc(N4CCOCC4)c3s2)CC1 [Pictilisib] + CS(=O)(=O)CCNCc1ccc(-c2ccc3ncnc(Nc4ccc(OCc5cccc(F)c5)c(Cl)c4)c3c2)o1 [Lapatinib] (partner 2 µM)
The essentials: as §1

Compound in assay [3]: CS(=O)(=O)N1CCN(Cc2cc3nc(-c4cccc5[nH]ncc45)nc(N4CCOCC4)c3s2)CC1 [Pictilisib] + C[C@]1(O)C[C@@H](c2nc(-c3ccc4ccc(-c5ccccc5)nc4c3)c3c(N)nccn32)C1 [Linsitinib] (partner 1 µM)
The gist of the method: as §1

Compound in assay [4]: NC1(c2ccc(-c3nc4ccn5c(=O)[nH]nc5c4cc3-c3ccccc3)cc2)CCC1 [MK-2206] + CC(=O)c1c(C)c2cnc(Nc3ccc(N4CCNCC4)cn3)nc2n(C2CCCC2)c1=O [Palbociclib] (partner 0.5 µM)
The essentials:
as §1

Compound in assay [5]: NC1(c2ccc(-c3nc4ccn5c(=O)[nH]nc5c4cc3-c3ccccc3)cc2)CCC1 [MK-2206] + NC(=O)Nc1cc(-c2cccc(F)c2)sc1C(=O)N[C@H]1CCCNC1 [AZD7762] (partner 0.2 µM)
The gist of the method:
as §1

Relative viability data for seven cell lines are collected here from the supplement of paper PMC10307832.

In the case of NCI-H727, the relative viability stood at 0.55 in assay [1] (first compound 0.02 µM); 0.433 in assay [1] (first compound 0.06325 µM); 0.303 in assay [1] (first compound 0.6325 µM); 0.156 in assay [1] (first compound 2 µM); 0.876 in assay [2] (first compound 0.02 µM); 0.825 in assay [2] (first compound 0.06325 µM). Also, the relative viability came out at 0.781 in assay [2] (first compound 0.6325 µM); 0.654 in assay [2] (first compound 2 µM); 0.267 in assay [3] (first compound 0.02 µM); 0.318 in assay [3] (first compound 0.06325 µM); 0.228 in assay [3] (first compound 0.6325 µM); 0.258 in assay [3] (first compound 2 µM). The relative viability in assay [4] (first compound 0.01 µM) came out at 0.775; in assay [4] (first compound 0.03162 µM), 0.658; in assay [4] (first compound 0.3162 µM) it was 0.638; in assay [4] (first compound 1 µM), 0.625; in assay [5] (first compound 0.01 µM), 0.563; in assay [5] (first compound 0.03162 µM) it was 0.485. The relative viability in assay [5] (first compound 0.3162 µM) came to 0.58; in assay [5] (first compound 1 µM), 0.575.
For the cell line NCI-H1975, the relative viability is 1.02 in assay [1] (first compound 0.02 µM); 0.936 in assay [1] (first compound 0.06325 µM); 0.707 in assay [1] (first compound 0.6325 µM); 0.314 in assay [1] (first compound 2 µM); 0.94 in assay [2] (first compound 0.02 µM); 0.781 in assay [2] (first compound 0.06325 µM). In addition, the relative viability in assay [2] (first compound 0.6325 µM) stood at 0.541; in assay [2] (first compound 2 µM) it was 0.212; in assay [3] (first compound 0.02 µM) it was 0.781; in assay [3] (first compound 0.06325 µM), 0.821; in assay [3] (first compound 0.6325 µM), 0.418; in assay [3] (first compound 2 µM), 0.249. The relative viability was 0.604 in assay [4] (first compound 0.01 µM); 0.529 in assay [4] (first compound 0.03162 µM); 0.49 in assay [4] (first compound 0.3162 µM); 0.168 in assay [4] (first compound 1 µM); 0.745 in assay [5] (first compound 0.01 µM); 0.748 in assay [5] (first compound 0.03162 µM). Moreover, the relative viability turned out to be 0.595 in assay [5] (first compound 0.3162 µM) and 0.582 in assay [5] (first compound 1 µM).
On to NCI-H460, for which the relative viability in assay [1] (first compound 0.02 µM) came to 1.15; in assay [1] (first compound 0.06325 µM), 1.07; in assay [1] (first compound 0.6325 µM) it was 0.563; in assay [1] (first compound 2 µM), 0.201; in assay [2] (first compound 0.02 µM), 1.08; in assay [2] (first compound 0.06325 µM), 1.02. Also, the relative viability in assay [2] (first compound 0.6325 µM) was found to be 0.548; in assay [2] (first compound 2 µM), 0.118; in assay [3] (first compound 0.02 µM), 0.78; in assay [3] (first compound 0.06325 µM) it was 0.733; in assay [3] (first compound 0.6325 µM) it was 0.154; in assay [3] (first compound 2 µM), 0.0347. Moreover, the relative viability in assay [4] (first compound 0.01 µM) was found to be 0.137; in assay [4] (first compound 0.03162 µM), 0.224; in assay [4] (first compound 0.3162 µM) it was 0.142; in assay [4] (first compound 1 µM), 0.0552; in assay [5] (first compound 0.01 µM) it was 0.692; in assay [5] (first compound 0.03162 µM), 0.366. Further, the relative viability worked out at 0.612 in assay [5] (first compound 0.3162 µM) and 0.644 in assay [5] (first compound 1 µM).
Regarding EPLC-272H, the relative viability came to 1.32 in assay [1] (first compound 0.02 µM); 1.05 in assay [1] (first compound 0.06325 µM); 1.01 in assay [1] (first compound 0.6325 µM); 0.733 in assay [1] (first compound 2 µM); 1.03 in assay [2] (first compound 0.02 µM); 1.09 in assay [2] (first compound 0.06325 µM). Further, the relative viability in assay [2] (first compound 0.6325 µM) is 0.658; in assay [2] (first compound 2 µM), 0.513; in assay [3] (first compound 0.02 µM), 1.2; in assay [3] (first compound 0.06325 µM), 1.19; in assay [3] (first compound 0.6325 µM), 0.875; in assay [3] (first compound 2 µM), 0.865. In addition, the relative viability in assay [4] (first compound 0.01 µM) is 0.32; in assay [4] (first compound 0.03162 µM) it was 0.287; in assay [4] (first compound 0.3162 µM), 0.315; in assay [4] (first compound 1 µM), 0.328; in assay [5] (first compound 0.01 µM), 0.23; in assay [5] (first compound 0.03162 µM), 0.185. Moreover, the relative viability in assay [5] (first compound 0.3162 µM) is 0.202; in assay [5] (first compound 1 µM), 0.175.
With NCI-H322M, the relative viability was found to be 1.23 in assay [1] (first compound 0.02 µM); 1.22 in assay [1] (first compound 0.06325 µM); 0.956 in assay [1] (first compound 0.6325 µM); 1.14 in assay [1] (first compound 2 µM); 0.57 in assay [2] (first compound 0.02 µM); 0.588 in assay [2] (first compound 0.06325 µM). In addition, the relative viability in assay [2] (first compound 0.6325 µM) worked out at 0.493; in assay [2] (first compound 2 µM), 0.423; in assay [3] (first compound 0.02 µM), 0.82; in assay [3] (first compound 0.06325 µM) it was 0.837; in assay [3] (first compound 0.6325 µM), 0.623; in assay [3] (first compound 2 µM), 0.656. For the same cell line, the relative viability was 0.51 in assay [4] (first compound 0.01 µM); 0.469 in assay [4] (first compound 0.03162 µM); 0.519 in assay [4] (first compound 0.3162 µM); 0.527 in assay [4] (first compound 1 µM); 0.58 in assay [5] (first compound 0.01 µM); 0.576 in assay [5] (first compound 0.03162 µM). Moreover, the relative viability came to 0.563 in assay [5] (first compound 0.3162 µM) and 0.516 in assay [5] (first compound 1 µM).
Consider NCI-H2405, for which the relative viability was determined as 0.981 in assay [1] (first compound 0.02 µM); 0.871 in assay [1] (first compound 0.06325 µM); 0.594 in assay [1] (first compound 0.6325 µM); 0.5 in assay [1] (first compound 2 µM); 1.2 in assay [2] (first compound 0.02 µM); 1.05 in assay [2] (first compound 0.06325 µM). Also, the relative viability in assay [2] (first compound 0.6325 µM) turned out to be 0.801; in assay [2] (first compound 2 µM) it was 0.505; in assay [3] (first compound 0.02 µM), 1.05; in assay [3] (first compound 0.06325 µM), 0.96; in assay [3] (first compound 0.6325 µM), 0.7; in assay [3] (first compound 2 µM), 0.5. The relative viability stood at 0.512 in assay [4] (first compound 0.01 µM); 0.534 in assay [4] (first compound 0.03162 µM); 0.532 in assay [4] (first compound 0.3162 µM); 0.481 in assay [4] (first compound 1 µM); 0.824 in assay [5] (first compound 0.01 µM); 0.769 in assay [5] (first compound 0.03162 µM). For the same cell line, the relative viability in assay [5] (first compound 0.3162 µM) came to 0.838; in assay [5] (first compound 1 µM), 0.534.
With NCI-H1666, the relative viability was 0.972 in assay [1] (first compound 0.02 µM); 0.835 in assay [1] (first compound 0.06325 µM); 0.62 in assay [1] (first compound 0.6325 µM); 0.438 in assay [1] (first compound 2 µM); 0.666 in assay [2] (first compound 0.02 µM); 0.725 in assay [2] (first compound 0.06325 µM). For the same cell line, the relative viability is 0.476 in assay [2] (first compound 0.6325 µM); 0.307 in assay [2] (first compound 2 µM); 0.744 in assay [3] (first compound 0.02 µM); 0.696 in assay [3] (first compound 0.06325 µM); 0.608 in assay [3] (first compound 0.6325 µM); 0.431 in assay [3] (first compound 2 µM). For the same cell line, the relative viability stood at 0.63 in assay [4] (first compound 0.01 µM); 0.675 in assay [4] (first compound 0.03162 µM); 0.652 in assay [4] (first compound 0.3162 µM); 0.586 in assay [4] (first compound 1 µM); 0.808 in assay [5] (first compound 0.01 µM); 0.858 in assay [5] (first compound 0.03162 µM). Moreover, the relative viability in assay [5] (first compound 0.3162 µM) was found to be 0.962; in assay [5] (first compound 1 µM), 0.806.
